From US4906755A, “Esters of hexahydro-8-hydroxy-2,6-methano-2H-quinolizin-3-(4H)-one and related compounds” (Merrell Dow Pharmaceuticals Inc., priority 1989, dated 1990)
Counter-ions that a name gives are not always drawn.

Columns and labels:
5-HT M-receptor = conditions: 5-HT receptor antagonism; literature values (Fozard et al.); cited from earlier work
[1] = slow intravenous injection, 10 mg; cited from earlier work
[2] = animal experimental model (Miner et al.; Costall et al. 1986); cited from earlier work
[3] = test system: Von Bezold-Jarisch Reflex induced by 5-HT; assay: Von Bezold-Jarisch Reflex induced by 5-HT injected intravenously into the rat; assay type: in vivo
Excerpt: The activity of these compounds against 5-HT can be assessed in vivo by measurement of the effect of the compound on the Von Bezold-Jarisch Reflex induced by 5-HT injected intravenously into the rat (see Paintal A. S., Physiol. Rev., 53, 159-227 […]; J. R. Fozard, Naunyn-Schmiedeberg's Arch. Pharmacol., 326, (1984) 36-44). The transient cardiac slowing arises from an increased afferent vagus activity arising from stimulation by 5-HT of sensory afferent fibers in and around the heart.

[4] = double-blind clinical trial (Loisy et al. 1985); cited from earlier work
[5] = doses of 0.01-0.1 mg/kg given intravenously
[6] = doses of 0.25-1 mg/kg given orally

CCN(CC)CCNC(=O)c1cc(Cl)c(N)cc1OC [metoclopramide]
pA2 (5-HT M-receptor): 7.2 | relief of an acute migraine attack [1]: immediate relief | prevention of nausea and vomiting induced by cancer chemotherapeutic agents [2]: highly effective

CN1[C@@H]2CC[C@H]1C[C@@H](OC(=O)c1c[nH]c3ccccc13)C2 [(3α-tropanyl)-lH-indole-3-carboxylic acid ester]
prevention of nausea and vomiting induced by cancer chemotherapeutic agents [2]: highly effective

CN1[C@@H]2CC[C@H]1C[C@H](OC(=O)c1ccccc1)C2 [pseudotropyl benzoate]
pA2 (5-HT M-receptor): 7.0

O=C(O[C@@H]1C[C@@H]2C[C@@H]3C[C@H](C1)N2CC3=O)c1c[nH]c2ccccc12 [endo-hexahydro-8-(3-indolylcarbonyloxy)-2,6-methano-2H-quinolizin-3(4H)onehydrochloride]
suppression of the Von Bezold-Jarisch Reflex response [3, 5]: suppressed the response dose-dependently | suppression of the Von Bezold-Jarisch Reflex response [3, 6]: suppressed the response dose-dependently

Cc1cc(C)cc(C(=O)O[C@@H]2C[C@@H]3C[C@@H]4C[C@H](C2)N3CC4=O)c1 [endo-8-(3,5-dimethylbenzoyloxy)hexahydro-2,6-methano-2H-quinolizin3(4H)-one]
suppression of the Von Bezold-Jarisch Reflex response [3, 5]: suppressed the response dose-dependently | suppression of the Von Bezold-Jarisch Reflex response [3, 6]: suppressed the response dose-dependently

COC(=O)[C@H]1[C@@H](OC(=O)c2ccccc2)C[C@@H]2CC[C@H]1N2 [nor (-) cocaine]
pA2 (5-HT M-receptor): 7.7

CN1[C@@H]2CC[C@H]1C[C@@H](OC(=O)c1cc(Cl)cc(Cl)c1)C2 [3,5-dichlorobenzoyltropine]
treatment of the acute migraine attack [4]: proved an effective treatment | prevention of nausea and vomiting induced by cancer chemotherapeutic agents [2]: highly effective

CN1[C@@H]2CC[C@H]1C[C@@H](OC(=O)c1ccccc1)C2 [benzoyltropine]
pA2 (5-HT M-receptor): 7.2
